Where two headings read alike, the source gives them in different places.
How the values were obtained:
[1] = test system: OCI-Ly10 human DLBCL cells; test: OCI-Ly10 anti-proliferative activity (Resazurin, 72 h); type: cell-based; settings: Homo sapiens, OCI-Ly10, 72 h, read-out: Proliferation OCI-Ly10-IC50
Method in brief: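 Resazurin fluorescence (590 nm, 5 h dye incubation) read after 72 h compound exposure at 37 °C; NFκB-dependent cells seeded at 7.5×10^3/well in 2.5% FBS medium. Day 0 signal subtracted, values normalised to DMSO control; IC50 from log[inhibitor] vs response, variable-slope fit.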

BTK^WT = BTK^WT (Homo sapiens (Human), UniProt Q06187); test: BTK^WT binding affinity (TR-FRET, LanthaScreen)
Method in brief: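 Tracer-displacement TR-FRET: 2.5 nM recombinant BTK, 2 nM Eu anti-His antibody and 15 nM Kinase Tracer 236 in Kinase Buffer A with inhibitor for 5 h. Emission read at 615/665 nm (excitation 340 nm); IC50 from variable-slope fit of log concentration vs response.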

BTK^C481S = BTK^C481S (Homo sapiens (Human), UniProt Q06187, C481S); test: BTK^C481S binding affinity (TR-FRET, LanthaScreen); settings: 5 h incubation
Method in brief: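 Tracer-displacement TR-FRET: 5 nM recombinant kinase, 2 nM Eu anti-His antibody and 30 nM Kinase Tracer 236 incubated 5 h with varying inhibitor in Kinase Buffer A. Read at 340 nm excitation, 615/665 nm emission. IC50 from log[inhibitor]–response variable-slope fit.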

EGFR = EGFR (Homo sapiens (Human), UniProt P00533); test: EGFR binding affinity (TR-FRET, LanthaScreen); settings: 5 h incubation
Method in brief: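 IC50 derived by variable-slope fit of TR-FRET signal (ex 340, em 615 and 665 nm) against inhibitor concentration. Mix contained recombinant GST-detected EGFR at 2.5 nM, Eu anti-GST antibody at 2 nM and Kinase Tracer 199 at 3 nM in Kinase Buffer A, 5 h incubation.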

[2] = TR-FRET binding, 5 h incubation, read-out: BTK^WT IC50
[3] = Table 6, numeric values, read-out: BTK Binding IC50

Chain of BTK^WT (Q06187 whole entry): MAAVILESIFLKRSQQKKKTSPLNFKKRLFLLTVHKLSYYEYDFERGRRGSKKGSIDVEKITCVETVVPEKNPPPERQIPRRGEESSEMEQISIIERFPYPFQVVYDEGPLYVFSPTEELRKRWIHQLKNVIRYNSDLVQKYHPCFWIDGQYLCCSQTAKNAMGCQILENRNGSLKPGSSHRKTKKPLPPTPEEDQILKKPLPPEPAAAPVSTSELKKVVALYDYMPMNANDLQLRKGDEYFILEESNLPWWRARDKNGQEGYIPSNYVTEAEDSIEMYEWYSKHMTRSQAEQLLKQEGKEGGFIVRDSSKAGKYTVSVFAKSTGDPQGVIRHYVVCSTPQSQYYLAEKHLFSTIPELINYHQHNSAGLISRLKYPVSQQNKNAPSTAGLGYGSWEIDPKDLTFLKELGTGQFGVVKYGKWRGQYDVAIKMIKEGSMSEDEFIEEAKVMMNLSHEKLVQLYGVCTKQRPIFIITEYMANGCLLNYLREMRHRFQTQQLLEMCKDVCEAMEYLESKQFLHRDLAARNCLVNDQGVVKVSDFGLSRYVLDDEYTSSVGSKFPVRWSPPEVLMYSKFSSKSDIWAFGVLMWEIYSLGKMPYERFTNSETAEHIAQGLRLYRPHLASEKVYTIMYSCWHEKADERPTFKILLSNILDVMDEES
Chain of EGFR (P00533 25-1210): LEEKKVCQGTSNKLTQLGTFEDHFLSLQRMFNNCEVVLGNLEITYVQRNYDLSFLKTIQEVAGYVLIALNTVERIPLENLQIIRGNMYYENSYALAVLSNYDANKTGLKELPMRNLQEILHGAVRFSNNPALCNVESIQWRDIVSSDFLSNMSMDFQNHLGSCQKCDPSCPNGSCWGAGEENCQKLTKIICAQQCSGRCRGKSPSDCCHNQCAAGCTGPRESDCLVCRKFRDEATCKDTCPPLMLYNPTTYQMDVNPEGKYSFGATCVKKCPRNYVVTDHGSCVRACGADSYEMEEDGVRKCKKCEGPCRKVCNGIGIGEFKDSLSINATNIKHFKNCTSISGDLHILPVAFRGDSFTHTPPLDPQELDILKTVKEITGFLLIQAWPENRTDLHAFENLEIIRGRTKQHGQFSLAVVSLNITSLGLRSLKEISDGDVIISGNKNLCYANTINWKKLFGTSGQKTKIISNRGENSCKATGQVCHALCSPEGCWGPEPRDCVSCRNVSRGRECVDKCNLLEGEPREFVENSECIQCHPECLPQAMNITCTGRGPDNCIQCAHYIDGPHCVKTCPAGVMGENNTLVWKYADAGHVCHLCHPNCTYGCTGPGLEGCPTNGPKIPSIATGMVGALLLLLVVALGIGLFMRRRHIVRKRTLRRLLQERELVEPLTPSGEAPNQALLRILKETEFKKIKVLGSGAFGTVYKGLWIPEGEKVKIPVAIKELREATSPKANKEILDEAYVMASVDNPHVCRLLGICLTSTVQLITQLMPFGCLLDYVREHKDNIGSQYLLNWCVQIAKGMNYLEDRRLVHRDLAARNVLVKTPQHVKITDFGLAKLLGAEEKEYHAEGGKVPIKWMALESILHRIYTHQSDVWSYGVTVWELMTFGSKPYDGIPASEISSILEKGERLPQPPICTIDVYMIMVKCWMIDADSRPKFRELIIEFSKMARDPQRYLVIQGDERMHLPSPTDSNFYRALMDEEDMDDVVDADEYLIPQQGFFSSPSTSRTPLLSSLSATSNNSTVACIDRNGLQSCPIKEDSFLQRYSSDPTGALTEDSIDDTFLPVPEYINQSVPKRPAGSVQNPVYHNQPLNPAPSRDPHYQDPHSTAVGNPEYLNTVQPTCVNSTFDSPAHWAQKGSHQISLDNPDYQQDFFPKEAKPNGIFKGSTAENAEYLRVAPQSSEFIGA
Chain of BTK^C481S (Q06187 whole entry C481S): as the sequence (Q06187 whole entry) above, with C481S counted along it

Row | IC50 [1] [nM] | IC50 (BTK^WT; [2]) [nM] | IC50 (BTK^WT; [3]) [nM] | IC50 (BTK^C481S) [nM] | IC50 (EGFR) [nM] | SMILES
1 | 100 to 1000 | ≤ 10 | 1.2 | ≤ 10 | 100 to 1000 | CCOC(=O)C1CCCC(n2nc(-c3ccc(CNC(=O)c4ccccc4OC)cc3)c3c(N)ncnc32)C1 (centres unmarked) [Example 41, ethyl 3-[4-amino-3-[4-[[(2-methoxybenzoyl)amino]methyl]phenyl]pyrazolo[3,4-d]pyrimidin-1-yl]cyclohexanecarboxylate]
2 | 100 to 1000 | ≤ 10 | – | ≤ 10 | 1000 to 10000 | COc1ccccc1C(=O)NCc1ccc(-c2nn(C3CCCC(C(=O)N(C)C)C3)c3ncnc(N)c23)cc1 (centres unmarked) [Example 42, N-[[4-[4-amino-1-[3-(dimethylcarbamoyl)cyclohexyl]pyrazolo[3,4-d]pyrimidin-3-yl]phenyl]methyl]-2-methoxy-benzamide]
3 | 10 to 100 | ≤ 10 | – | ≤ 10 | 100 to 1000 | COc1ccc(F)cc1C(=O)NCc1ccc(-c2nn(C(C)(C)C)c3ncnc(N)c23)cc1 [Example 43, N-[[4-(4-amino-1-tert-butyl-pyrazolo[3,4-d]pyrimidin-3-yl)phenyl]methyl]-5-fluoro-2-methoxy-benzamide]
4 | 100 to 1000 | ≤ 10 | – | ≤ 10 | 1000 to 10000 | COc1ccccc1C(=O)NCc1ccc(-c2nn([C@@H]3C=C[C@H](O)C3)c3ncnc(N)c23)cc1 [Example 44, N-[[4-[4-amino-1-[(1S,4R)-4-hydroxycyclopent-2-en-1-yl]pyrazolo[3,4-d]pyrimidin-3-yl]phenyl]methyl]-2-methoxy-benzamide]
5 | 100 to 1000 | ≤ 10 | – | ≤ 10 | 100 to 1000 | COc1ccccc1C(=O)NCc1ccc(-c2nn([C@@H]3C[C@@H](O)C4CC43)c3ncnc(N)c23)cc1 (stereo partly drawn) [Example 45, N-[[4-[4-amino-1-[(2R,4R)-4-hydroxy-2-bicyclo[3.1.0]hexanyl]pyrazolo[3,4-d]pyrimidin-3-yl]phenyl]methyl]-2-methoxy-benzamide]
6 | 100 to 1000 | 10 to 100 | – | 10 to 100 | 100 to 1000 | COc1ccccc1C(=O)NCc1ccc(-c2nn(C3CCC(OC(=O)c4ccc(C)cc4)CC3)c3ncnc(N)c23)cc1 (centres unmarked) [Example 46, [4-[4-amino-3-[4-[[(2-methoxybenzoyl)amino]methyl]phenyl]pyrazolo[3,4-d]pyrimidin-1-yl]cyclohexyl] 4-methylbenzoate]
7 | 100 to 1000 | ≤ 10 | – | ≤ 10 | 100 to 1000 | COc1ccccc1C(=O)NCc1ccc(-c2nn([C@H]3C=C[C@@H](O)C3)c3ncnc(N)c23)cc1 [Example 47, N-[[4-[4-amino-1-[(1R,4S)-4-hydroxycyclopent-2-en-1-yl]pyrazolo[3,4-d]pyrimidin-3-yl]phenyl]methyl]-2-methoxy-benzamide]
8 | 100 to 1000 | 10 to 100 | – | ≤ 10 | 1000 to 10000 | COc1ccccc1C(=O)NCc1ccc(-c2nn([C@H]3C=C[C@@H](OC(=O)C(C)(C)C)C3)c3ncnc(N)c23)cc1 [Example 48, [(1S,4R)-4-[4-amino-3-[4-[[(2-methoxybenzoyl)amino]methyl]phenyl]pyrazolo[3,4-d]pyrimidin-1-yl]cyclopent-2-en-1-yl] 2,2-dimethylpropanoate]
9 | 10 to 100 | ≤ 10 | 0.4 | ≤ 10 | 10 to 100 | COc1ccccc1C(=O)NCc1ccc(-c2nn(C3C=CCCC3)c3ncnc(N)c23)cc1 (centres unmarked) [Example 49, N-[[4-(4-amino-1-cyclohex-2-en-1-yl-pyrazolo[3,4-d]pyrimidin-3-yl)phenyl]methyl]-2-methoxy-benzamide]
10 | 100 to 1000 | ≤ 10 | – | ≤ 10 | 100 to 1000 | COc1ccccc1C(=O)NCc1ccc(-c2nn([C@@H]3C=C[C@@H](O)C3)c3ncnc(N)c23)cc1 [Example 50, N-[[4-[4-amino-1-[(1S,4S)-4-hydroxycyclopent-2-en-1-yl]pyrazolo[3,4-d]pyrimidin-3-yl]phenyl]methyl]-2-methoxy-benzamide]
11 | 10 to 100 | ≤ 10 | 0.6 | ≤ 10 | 10 to 100 | COc1ccccc1C(=O)NCc1ccc(-c2nn(C(C)(C)C)c3ncnc(N)c23)cc1 [Example 51, N-[[4-(4-amino-1-tert-butyl-pyrazolo[3,4-d]pyrimidin-3-yl)phenyl]methyl]-2-methoxy-benzamide]
12 | 10 to 100 | ≤ 10 | – | ≤ 10 | 10 to 100 | COc1ccccc1C(=O)NCc1ccc(-c2nn(C3CC4CC4C3)c3ncnc(N)c23)cc1 (centres unmarked) [Example 52, N-[[4-[4-amino-1-(3-bicyclo[3.1.0]hexanyl)pyrazolo[3,4-d]pyrimidin-3-yl]phenyl]methyl]-2-methoxy-benzamide]
13 | 1000 to 10000 | 10 to 100 | – | ≤ 10 | 1000 to 10000 | COc1ccc(F)cc1C(=O)NCc1ccc(-c2nn([C@H]3C=C[C@H](O)C3)c3ncnc(N)c23)cc1 [Example 53, N-[[4-[4-Amino-1-[(1R,4R)-4-hydroxycyclopent-2-en-1-yl]pyrazolo[3,4-d]pyrimidin-3-yl]phenyl]methyl]-5-fluoro-2-methoxy-benzamide]
14 | 100 to 1000 | ≤ 10 | 0.7 | ≤ 10 | 1000 to 10000 | COc1ccccc1C(=O)NCc1ccc(-c2nn([C@H]3C=C[C@H](F)C3)c3ncnc(N)c23)cc1 [Example 54, N-[(4-{4-amino-1-[(1R,4R)-4-fluorocyclopent-2-en-1-yl]-1H-pyrazolo[3,4-d]pyrimidin-3-yl}phenyl)methyl]-2-methoxybenzamide]
15 | 100 to 1000 | 10 to 100 | – | 10 to 100 | 1000 to 10000 | CCO[C@H]1C=C[C@H](n2nc(-c3ccc(CNC(=O)c4ccccc4OC)cc3)c3c(N)ncnc32)C1 [Example 55, N-[(4-{4-amino-1-[(1R,4R)-4-ethoxycyclopent-2-en-1-yl]-1H-pyrazolo[3,4-d]pyrimidin-3-yl}phenyl)methyl]-2-methoxybenzamide]
16 | 100 to 1000 | 100 to 1000 | – | 1000 to 10000 | 1000 to 10000 | COCCO[C@H]1C=C[C@H](n2nc(-c3ccc(CNC(=O)c4ccccc4OC)cc3)c3c(N)ncnc32)C1 [Example 57, N-[[4-[4-amino-1-[(1R,4R)-4-(2-methoxyethoxy)cyclopent-2-en-1-yl]pyrazolo[3,4-d]pyrimidin-3-yl]phenyl]methyl]-2-methoxy-benzamide]
17 | 100 to 1000 | ≤ 10 | – | ≤ 10 | 1000 to 10000 | COCCNc1ncnc2c1c(-c1ccc(CNC(=O)c3ccccc3OC)cc1)nn2[C@H]1C=C[C@H](O)C1 [Example 58, N-[[4-[1-[(1R,4R)-4-hydroxycyclopent-2-en-1-yl]-4-(2-methoxyethylamino)pyrazolo[3,4-d]pyrimidin-3-yl]phenyl]methyl]-2-methoxy-benzamide]
18 | 100 to 1000 | 10 to 100 | – | 10 to 100 | 1000 to 10000 | COc1ccccc1C(=O)NCc1ccc(-c2nn([C@H]3C=C[C@H](N)C3)c3ncnc(N)c23)cc1 [Example 59, N-[(4-{4-amino-1-[(1R,4R)-4-aminocyclopent-2-en-1-yl]-1H-pyrazolo[3,4-d]pyrimidin-3-yl}phenyl)methyl]-2-methoxybenzamide]
19 | 100 to 1000 | ≤ 10 | – | ≤ 10 | 1000 to 10000 | COc1ccccc1C(=O)NCc1ccc(-c2nn([C@H]3C=C[C@H](NC(C)=O)C3)c3ncnc(N)c23)cc1 [Example 60, N-[[4-[1-[(1R,4R)-4-acetamidocyclopent-2-en-1-yl]-4-amino-pyrazolo[3,4-d]pyrimidin-3-yl]phenyl]methyl]-2-methoxy-benzamide]
20 | 100 to 1000 | ≤ 10 | – | ≤ 10 | 1000 to 10000 | COc1ccccc1C(=O)NCc1ccc(-c2nn([C@H]3C=C[C@H](n4ccnn4)C3)c3ncnc(N)c23)cc1 [Example 61, N-[[4-[4-amino-1-[(1R,4R)-4-(triazol-1-yl)cyclopent-2-en-1-yl]pyrazolo[3,4-d]pyrimidin-3-yl]phenyl]methyl]-2-methoxy-benzamide]
21 | 10 to 100 | ≤ 10 | – | ≤ 10 | 100 to 1000 | COc1ccccc1C(=O)NCc1ccc(-c2nn(C3CCC(C)C3)c3ncnc(N)c23)cc1 (centres unmarked) [Example 62, N-[[4-[4-amino-1-(3-methylcyclopentyl)pyrazolo[3,4-d]pyrimidin-3-yl]phenyl]methyl]-2-methoxy-benzamide]
22 | 10 to 100 | ≤ 10 | – | ≤ 10 | 1000 to 10000 | COc1ccc(F)cc1C(=O)NCc1ccc(-c2nn(C3CCCC3)c3ncnc(N)c23)cc1F [Example 63, N-[[4-(4-Amino-1-cyclopentyl-pyrazolo[3,4-d]pyrimidin-3-yl)-2-fluoro-phenyl]methyl]-5-fluoro-2-methoxy-benzamide]
